According to US10287301B2 (Achillion Pharmaceuticals, Inc., priority 2015, dated 2019):

Target: Human Factor D (Homo sapiens (Human), UniProt P00746)
Test: Human Factor D Assay
Type: biochemical
Conditions: Human Factor D 80 nM, substrate Z-L-Lys-SBzl; read-out: IC50
Experimental: Human Factor D (purified from human serum, Complement Technology, Inc.) at 80 nM final concentration was incubated with test compound at various concentrations for 5 minutes at room temperature in 50 mM Tris, 1M NaCl, pH 7.5. A synthetic substrate Z-L-Lys-SBzl and DTNB (Ellman's reagent) are added to final concentrations of 100 μM each. […] IC50 values are calculated by nonlinear regression of complement Factor D reaction rates as a function of test compound concentration.

Human Factor D, sequence (P00746 26-253): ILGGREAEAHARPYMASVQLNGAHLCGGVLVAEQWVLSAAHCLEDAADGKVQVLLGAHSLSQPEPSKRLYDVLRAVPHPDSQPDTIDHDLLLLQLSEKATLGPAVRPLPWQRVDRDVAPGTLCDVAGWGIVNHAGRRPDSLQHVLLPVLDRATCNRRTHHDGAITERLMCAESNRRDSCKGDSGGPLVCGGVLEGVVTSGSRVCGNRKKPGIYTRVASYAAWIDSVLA

Row | Compound | IC50 [nM]
1 | NC(=O)c1nn(CC(=O)N2C[C@H](F)C[C@H]2C(=O)Nc2cccc(OC(F)(F)F)c2F)c2ccc(-c3cncnc3)cc12 [Compound 9, 1-(2-((2S,4R)-4-fluoro-2-(2-fluoro-3-(trifluoromethoxy)phenylcarbamoyl)pyrrolidin-1-yl)-2-oxoethyl)-5-(pyrimidin-5-yl)-1H-indazole-3-carboxamide] | < 1000
2 | NC(=O)c1nn(CC(=O)N2C[C@H](F)C[C@H]2C(=O)Nc2cccc(-c3ccccc3Cl)c2F)c2ccc(-c3cnc(N4CCCC4)nc3)cc12 [Compound 10] | < 1000
3 | NC(=O)c1nn(CC(=O)N2[C@@H]3C[C@@H]3C[C@H]2C(=O)Nc2cccc(Br)n2)c2ccc(-c3cnc(N4CCCC4)nc3)cc12 [Compound 11] | < 1000
4 | NC(=O)c1nn(CC(=O)N2C[C@H](F)C[C@H]2C(=O)Nc2cccc(-c3ccccc3Cl)c2F)c2ccc(-c3ccc(F)nc3)cc12 [Compound 12, 1-(2-((2S,4R)-2-((2′-Chloro-2-fluoro-[1,1′-biphenyl]-3-yl)carbamoyl)-4-fluoropyrrolidin-1-yl)-2-oxoethyl)-5-(6-fluoropyridin-3-yl)-1H-indazole-3-carboxamide] | < 1000
5 | NC(=O)c1nn(CC(=O)N2[C@@H]3C[C@@H]3C[C@H]2C(=O)Nc2cccc(-c3ccccc3Cl)c2F)c2ccc(-c3ccc(F)nc3)cc12 [Compound 13, 1-(2-((1R,3S,5R)-3-(2′-chloro-2-fluorobiphenyl-3-ylcarbamoyl)-2-azabicyclo[3.1.0]hexan-2-yl)-2-oxoethyl)-5-(6-fluoropyridin-3-yl)-1H-indazole-3-carboxamide] | < 1000
6 | CC(=O)c1cn(CC(=O)N2C[C@H](F)C[C@H]2C(=O)Nc2cccc(Br)n2)c2ccc(-c3cncnc3)cc12 [Compound 14, (2S,4R)-1-(2-(3-acetyl-5-(pyrimidin-5-yl)-1H-indol-1-yl)acetyl)-N-(6-bromopyridin-2-yl)-4-fluoropyrrolidine-2-carboxamide] | < 1000
7 | CC(=O)c1cn(CC(=O)N2[C@@H]3C[C@@H]3C[C@H]2C(=O)Nc2cccc(-c3ccccc3Cl)c2F)c2ccc(-c3cncnc3)cc12 [Compound 15, (1R,3S,5R)-2-(2-(3-acetyl-5-(pyrimidin-5-yl)-1H-indol-1-yl)acetyl)-N-(2′-chloro-2-fluorobiphenyl-3-yl)-2-azabicyclo[3.1.0] hexane-3-carboxamide] | < 1000
8 | CC(=O)c1cn(CC(=O)N2C[C@H](F)C[C@H]2C(=O)Nc2cccc(-c3ccccc3Cl)c2F)c2ccc(N3CCN(C(C)=O)CC3)cc12 [Compound 16, (2S,4R)-1-(2-(3-acetyl-5-(4-acetylpiperazin-1-yl)-1H-indol-1-yl)acetyl)-N-(2′-chloro-2-fluorobiphenyl-3-yl)-4-fluoropyrrolidine-2-carboxamide] | < 1000
9 | CC(=O)c1cn(CC(=O)N2[C@@H]3C[C@@H]3C[C@H]2C(=O)Nc2cccc(Br)n2)c2ccc(-c3cncnc3)cc12 [Compound 17, (1R,3S,5R)-2-(2-(3-acetyl-5-(pyrimidin-5-yl)-1H-indol-1-yl)acetyl)-N-(6-bromopyridin-2-yl)2-azabicyclo[3.1.0] hexane-3-carboxamide] | < 1000
10 | NC(=O)c1nn(CC(=O)N2C[C@H](F)C[C@H]2C(=O)NCc2cccc(Cl)c2F)c2cnc(-c3cncnc3)cc12 [Compound 18, 1-(2-((2S,4R)-2-(3-chloro-2-fluorobenzyl-carbamoyl)-4-fluoropyrrolidin-1-yl)-2-oxoethyl)-5-(pyrimidin-5-yl)-1H-pyrazolo[3,4-c]pyridine-3-carboxamide] | < 1000
11 | NC(=O)c1nn(CC(=O)N2C[C@H](F)C[C@H]2C(=O)Nc2cccc(-c3ccccc3Cl)c2F)c2cnc(-c3cncnc3)cc12 [Compound 19, 1-(2-((2S,4R)-2-((2′-Chloro-2-fluoro-[1,1′-biphenyl]-3-yl)carbamoyl)-4-fluoropyrrolidin-1-yl)-2-oxoethyl)-5-(pyrimidin-5-yl)-1H-pyrazolo[3,4-c]pyridine-3-carboxamide] | < 1000
